The text below walks through data of patent US20250051321A1, “TRICYCLIC DERIVATIVE AND PREPARATION METHOD THEREFOR AND APPLICATION THEREOF” (SHANGHAI JEMINCARE PHARMACEUTICAL CO., LTD., priority 2021, published 2025).

For one test, the target named is ATX (Homo sapiens (Human), UniProt Q13822). In words: ATX enzyme inhibition assay (Amplex UltraRed/choline oxidase/HRP, 16:0 Lyso PC substrate). In kind it is biochemical. The following applies: assay buffer pH 7.5; read-out: IC50 (nM) pH 7.5. The method, then:
All compounds were prepared as a 10 mM DMSO stock solution.
Solutions at pH 8.5 and pH 7.5 were prepared respectively with the following formulations:
All compounds, including the positive control compound, were diluted 5-fold from 10 mM to 2 mM with DMSO in the first step. The mixture was then diluted to 100 μM with 1× assay buffer.
3. Separate Detection of Compounds with 1× Assay Buffer at Two pH Values:
a) 5 μL of 10× compound diluent was added to a 384-well plate (Greiner 781209) using a motorized pipette (see the “experimental preparation” step). 5 μL of 1× assay buffer containing 5% DMSO was added to both negative and positive control wells. The plate was centrifuged at 300 rpm for 1 minute at room temperature.
b) 2× ATX ([…]) was prepared with 1× assay buffer, and 25 μL of 2× ATX was added to the plate using a motorized pipette. 25 μL of 1× assay buffer was added to the negative control wells and 25 μL of 2× ATX was added to the positive control wells. The plate was centrifuged at 300 rpm for 1 minute at room temperature.
The plate was incubated at room temperature for 10 minutes.
c) 2.5× working solution containing Amplex UltraRed reagent (125 μM), HRP (2.5 U/mL), choline oxidase (1.25 U/mL), and 16:0 Lyso PC (75 μM) was prepared with 1× assay buffer. 20 μL of 2.5× working solution was added to all reaction wells using a motorized pipette. The plate was centrifuged at 300 rpm for 1 minute at room temperature.
d) The plate was detected by SpectraMax with the following procedures: fluorescence mode; excitation at 550 nm; emission at 590 nm; kinetics; read once every 2 minutes; read continuously for 60 minutes.
The calculation formula of % inhibition (i.e., % inhibition rate) was as follows: […]
V0: X-axis is taken as 0 to 30 minutes, Y-axis is taken as fluorescence readings, and the slope corresponding to the straight line fitted by the software GraphPad Prism 8 is the initial response rate.
V0max: Average V0 of the positive control wells in the plate.
V0min: Average V0 of the negative control wells in the plate.
The IC50 of the compounds was calculated from a nonlinear regression line (dose-initial response rate) fitted by % inhibition and log value of compound concentration using the software GrahPad Prism 8.
As for `CN(c1nc(-c2ccc(F)cc2)c(C#N)s1)c1c2c(nc3ccc(N4CCN(CC(=O)N5CC(O)C5)CC4)cc13)CCC2` [Example A1], the IC50 came out at 138 nM.
Same read-out and setting: the result for `CN(c1nc(-c2ccc(F)cc2)c(C#N)s1)c1c2c(nc3ccc(N4CCN(CC(=O)N5CC(O)C5)CC4)cc13)COC2` [Example A2] reads 624 nM; that for `CN(c1nc(-c2ccc(F)cc2)c(C#N)s1)c1c2c(nc3ccc(N4CCN(CC(=O)N5CC(O)C5)CC4)cc13)CCO2` [Example A3], 214 nM.
Take `CN(c1nc(-c2ccc(F)cc2)c(C#N)s1)c1c2c(nc3c(F)cc(N4CCN(CC(=O)N5CC(O)C5)CC4)cc13)CCC2` [Example A4]: the IC50 was found to be 174 nM.
On to `CN(c1nc(-c2ccc(F)cc2)c(C#N)s1)c1c2c(nc3c(F)cc(N4CCN(CC(=O)N5CC(CO)C5)CC4)cc13)CCC2` [Example A5], for which the IC50 came out at 112 nM.
Consider `CN(c1nc(-c2ccc(F)cc2)c(C#N)s1)c1c2c(nc3c(F)cc(N4CCC5(CC4)CN(CC(=O)N4CC(O)C4)C5)cc13)CCC2` [Example A6], for which the IC50 was 318 nM.
Take `CN(c1nc(-c2ccc(F)cc2)c(C#N)s1)c1c2c(nc3ccc(N4CCN(CC(=O)N5CC(O)C5)CC4)cc13)CC2` [Example A7]: the IC50 came to 85.1 nM.
The same measure, in the same setting: the result for `CN(c1nc(-c2ccc(F)cc2)c(C#N)s1)c1c2c(nc3cc(F)c(N4CCN(CC(=O)N5CC(O)C5)CC4)cc13)CCC2` [Example A8] reads 883 nM.

The test is the same for the next values; noted with them: assay buffer pH 8.5; read-out: IC50 (nM) pH 8.5.
For `C[C@@H]1CN(CC(=O)N2CC(O)C2)CCN1c1cc(F)c2nc3c(c(N(C)c4nc(-c5ccc(F)cc5)c(C#N)s4)c2c1)CC[C@H]3O` (single isomer, unassigned) [Example E6-b], the IC50 is 14 nM.
On to `C[C@H]1CN(CC(=O)N2CC(O)C2)CCN1c1cc(F)c2nc3c(c(N(C)c4nc(-c5ccc(F)cc5)c(C#N)s4)c2c1)CC[C@@H]3O` (single isomer, unassigned) [Example E7-a], for which the IC50 amounted to 15.2 nM.
For the compound `CN(c1nc(-c2ccc(F)cc2)c(C#N)s1)c1c2c(nc3ccc(N4CCN(CC(=O)N5CC(O)C5)CC4)cc13)CCC2` [Example A1], the IC50 stood at 27.7 nM.
As for `CN(c1nc(-c2ccc(F)cc2)c(C#N)s1)c1c2c(nc3ccc(N4CCN(CC(=O)N5CC(O)C5)CC4)cc13)COC2` [Example A2], the IC50 stood at 96.7 nM.
As to `CN(c1nc(-c2ccc(F)cc2)c(C#N)s1)c1c2c(nc3ccc(N4CCN(CC(=O)N5CC(O)C5)CC4)cc13)CCO2` [Example A3], the IC50 came to 27.8 nM.
On to `CN(c1nc(-c2ccc(F)cc2)c(C#N)s1)c1c2c(nc3c(F)cc(N4CCN(CC(=O)N5CC(O)C5)CC4)cc13)CCC2` [Example A4], for which the IC50 worked out at 52.1 nM.
For the compound `CN(c1nc(-c2ccc(F)cc2)c(C#N)s1)c1c2c(nc3c(F)cc(N4CCN(CC(=O)N5CC(CO)C5)CC4)cc13)CCC2` [Example A5], the IC50 turned out to be 32.8 nM.
The same measure, in the same setting: the result for `CN(c1nc(-c2ccc(F)cc2)c(C#N)s1)c1c2c(nc3c(F)cc(N4CCC5(CC4)CN(CC(=O)N4CC(O)C4)C5)cc13)CCC2` [Example A6] reads 44.7 nM; that for `CN(c1nc(-c2ccc(F)cc2)c(C#N)s1)c1c2c(nc3ccc(N4CCN(CC(=O)N5CC(O)C5)CC4)cc13)CC2` [Example A7], 22.2 nM; that for `CN(c1nc(-c2ccc(F)cc2)c(C#N)s1)c1c2c(nc3cc(F)c(N4CCN(CC(=O)N5CC(O)C5)CC4)cc13)CCC2` [Example A8], 64 nM.

A further test relates to plasma LPA 18:1 and LPA 18:2. In words: Human plasma ex vivo assay (LPA 18:1 / 18:2 by LC-MS/MS). It is filed as biochemical. The following applies: 37° C., 2 hours, LPA 18:1, read-out: Human plasma ex vivo assay IC50 (18:1 LPA). The method, then: The collected plasma was centrifuged at 4000 rpm for 15 minutes at 4° C. The supernatant was aliquoted into a 96-well plate (25 μL per well), sealed, and frozen at −80° C. for further use.
LPA 17:0 powder was dissolved in a mixed solution of water: isopropanol: formic acid (1:1:1) to a final concentration of […]. The mixture was aliquoted and frozen at −20° C.
1 volume of formic acid was added to 1000× methanol, mixed well, and stored at 4° C. a) The 96-well plate containing frozen plasma was removed from the −80° C. freezer and thawed on ice at room temperature. b) 6 μL of 50× LPA 17:0 (internal standard) and 264 μL of 0.1% FA were added to a clean well of the 96-well plate; the final concentration of LPA 17:0 (internal standard) was 50 nM. c) 6× compound was 1:3 serially diluted to a total of 8 concentrations, and 5 μL of the compound per well was added to the 96-well plate containing plasma. The maximum final concentration of the compound was 10 μM, and the final concentration of DMSO was 0.1%. The plate was centrifuged at 300 rpm for 30 seconds. The DMSO control sample reacted for 0 hours was used as the minimum value (Min), and the DMSO control sample reacted for 2 hours was used as the maximum value (Max). […]
d) The DMSO sample reacted for 0 hours was rapidly transferred to 0.1% FA solution containing the internal standard in step b) to terminate the reaction and precipitate plasma proteins. e) The 96-well plate containing plasma and compounds was rapidly incubated in a 37° C. incubator for 2 hours. After the incubation, 6 μL of 10× LPA 17:0 and 264 μL of 0.1% FA were added to each well to terminate the reaction and precipitate plasma proteins. […]
f) All the samples were mixed well with a pipette, and centrifuged at 4000 rpm for 10 minutes at 4° C. 150 μL of the supernatant was added to a 96-well U-bottom plate (Thermo 267245), sealed with silica gel, and then loaded. The contents of LPA 18:1 and LPA 18:2 in the samples were detected by LC-MS/MS system.
LPA 18:1(or 18:2) relative content=LPA 18:1(or 18:2) peak area/LPA 17:0 peak area Percentage reduction (%) in plasma LPA18:1(or 18:2)=(Max−X)/(Max−Min)*100 Max: LPA 18:1 (or 18:2) relative content of the DMSO sample reacted for 2 hours Min: LPA 18:1 (or 18:2) relative content of the DMSO sample reacted for 0 hours X: LPA 18:1 (or 18:2) relative content of the sample after compound treatment for 2 hours The IC50 of the compounds was calculated by fitting a nonlinear regression through percentage reduction in plasma LPA 18:1 (or 18:2) and log value of compound concentration using the software GraphPad Prism 8.
Y=Bottom+(Top−Bottom)/(1+10^((Log IC50−X)*Hill Slope))
In the case of `C[C@@H]1CN(CC(=O)N2CC(O)C2)CCN1c1cc(F)c2nc3c(c(N(C)c4nc(-c5ccc(F)cc5)c(C#N)s4)c2c1)CC[C@H]3O` (single isomer, unassigned) [Example E6-b], the IC50 was 387 nM.
Regarding `C[C@H]1CN(CC(=O)N2CC(O)C2)CCN1c1cc(F)c2nc3c(c(N(C)c4nc(-c5ccc(F)cc5)c(C#N)s4)c2c1)CC[C@@H]3O` (single isomer, unassigned) [Example E7-a], the IC50 stood at 369 nM.
Regarding `CN(c1nc(-c2ccc(F)cc2)c(C#N)s1)c1c2c(nc3ccc(N4CCN(CC(=O)N5CC(O)C5)CC4)cc13)CCC2` [Example A1], the IC50 was found to be 183 nM.
Take `CN(c1nc(-c2ccc(F)cc2)c(C#N)s1)c1c2c(nc3ccc(N4CCN(CC(=O)N5CC(O)C5)CC4)cc13)COC2` [Example A2]: the IC50 came to 85 nM.
Same read-out and setting: the figure for `CN(c1nc(-c2ccc(F)cc2)c(C#N)s1)c1c2c(nc3ccc(N4CCN(CC(=O)N5CC(O)C5)CC4)cc13)CCO2` [Example A3] is 109 nM; for `CN(c1nc(-c2ccc(F)cc2)c(C#N)s1)c1c2c(nc3c(F)cc(N4CCN(CC(=O)N5CC(O)C5)CC4)cc13)CCC2` [Example A4] it is 160 nM.
In the case of `CN(c1nc(-c2ccc(F)cc2)c(C#N)s1)c1c2c(nc3c(F)cc(N4CCN(CC(=O)N5CC(CO)C5)CC4)cc13)CCC2` [Example A5], the IC50 was determined as 200 nM.
As to `CN(c1nc(-c2ccc(F)cc2)c(C#N)s1)c1c2c(nc3c(F)cc(N4CCC5(CC4)CN(CC(=O)N4CC(O)C4)C5)cc13)CCC2` [Example A6], the IC50 was 182 nM.
As to `CN(c1nc(-c2ccc(F)cc2)c(C#N)s1)c1c2c(nc3ccc(N4CCN(CC(=O)N5CC(O)C5)CC4)cc13)CC2` [Example A7], the IC50 worked out at 74.2 nM.
For the compound `CN(c1nc(-c2ccc(F)cc2)c(C#N)s1)c1c2c(nc3cc(F)c(N4CCN(CC(=O)N5CC(O)C5)CC4)cc13)CCC2` [Example A8], the IC50 was 248 nM.

The same test, now with this note: 37° C., 2 hours, LPA 18:2, read-out: Human plasma ex vivo assay IC50 (18:2 LPA).
Consider `C[C@@H]1CN(CC(=O)N2CC(O)C2)CCN1c1cc(F)c2nc3c(c(N(C)c4nc(-c5ccc(F)cc5)c(C#N)s4)c2c1)CC[C@H]3O` (single isomer, unassigned) [Example E6-b], for which the IC50 is 431 nM.
On to `C[C@H]1CN(CC(=O)N2CC(O)C2)CCN1c1cc(F)c2nc3c(c(N(C)c4nc(-c5ccc(F)cc5)c(C#N)s4)c2c1)CC[C@@H]3O` (single isomer, unassigned) [Example E7-a], for which the concentration for half-maximal inhibition (IC50) stood at 351 nM.
`CN(c1nc(-c2ccc(F)cc2)c(C#N)s1)c1c2c(nc3ccc(N4CCN(CC(=O)N5CC(O)C5)CC4)cc13)CCC2` [Example A1]: the IC50 was determined as 196 nM.
Regarding `CN(c1nc(-c2ccc(F)cc2)c(C#N)s1)c1c2c(nc3ccc(N4CCN(CC(=O)N5CC(O)C5)CC4)cc13)COC2` [Example A2], the IC50 came out at 73.5 nM.
On the same count and under the same terms, the result for `CN(c1nc(-c2ccc(F)cc2)c(C#N)s1)c1c2c(nc3ccc(N4CCN(CC(=O)N5CC(O)C5)CC4)cc13)CCO2` [Example A3] reads 103 nM; that for `CN(c1nc(-c2ccc(F)cc2)c(C#N)s1)c1c2c(nc3c(F)cc(N4CCN(CC(=O)N5CC(O)C5)CC4)cc13)CCC2` [Example A4], 176 nM; that for `CN(c1nc(-c2ccc(F)cc2)c(C#N)s1)c1c2c(nc3c(F)cc(N4CCN(CC(=O)N5CC(CO)C5)CC4)cc13)CCC2` [Example A5], 239 nM.
As to `CN(c1nc(-c2ccc(F)cc2)c(C#N)s1)c1c2c(nc3c(F)cc(N4CCC5(CC4)CN(CC(=O)N4CC(O)C4)C5)cc13)CCC2` [Example A6], the IC50 stood at 184 nM.
The same measure, in the same setting: the result for `CN(c1nc(-c2ccc(F)cc2)c(C#N)s1)c1c2c(nc3ccc(N4CCN(CC(=O)N5CC(O)C5)CC4)cc13)CC2` [Example A7] reads 72.7 nM; that for `CN(c1nc(-c2ccc(F)cc2)c(C#N)s1)c1c2c(nc3cc(F)c(N4CCN(CC(=O)N5CC(O)C5)CC4)cc13)CCC2` [Example A8], 271 nM.
